Values after ≈ are worked out from the molar mass of the structure shown.
How the values were obtained:
[1] = biological target: human adenosine receptor sub-type A2a (wild type) (Homo sapiens (Human), UniProt P29274); test: Affinity for human adenosine A2a receptor by surface plasmon resonance (SPR); type: binding
Experimental: (§1) Affinity for the human adenosine receptor sub-types (A2a, A2b, A1 and A3) was determined by surface plasmon resonance (SPR) using published methodologies (see below for further details).
(§2) Affinity for the human adenosine receptor sub-types (A2a, A2b, A1 and A3) was determined by SPR as described in Aristotelous, T., et al, Methods in Enzymology (2015), Volume 556, Chapter 23, pages 499-525 and Congreve, M., et al, J Med Chem (2012), Vol. 55, pages 1898-1903. The method used was analogous to the method used in Congreve, M., et al (see supplementary page S10) for the A2a receptor, but the wild type receptor was used rather than the proprietary StaR form.

[2] = biological target: human A2a receptors (HEK 293 transfected) (Homo sapiens (Human), UniProt P29274); test: Inhibition of cAMP release in HEK-A2aR cells (HTRF, LANCE Ultra cAMP); type: cell-based; details: 3 nM NECA, 10 min
Experimental: Functional activity was measured by inhibition of cAMP release in HEK cells (see below for further details).
To screen A2a receptor inhibitors by HTRF technology, about 500 HEK-A2aR cells (HEK 293 transfected with human A2a receptors) were treated with inhibitors in presence of stimulation buffer (1×HBSS, 5 mM HEPES, 0.1% BSA stabilizer, pH 7.4) supplemented with 30 μM phosphodiesterase inhibitor Rolipram (to prevent cAMP degradation). This stimulation was immediately followed by treatment with 3 nM standard A2aR agonist (NECA) for 10 min under gentle shaking at room temperature. After that, inhibition of cAMP release was determined directly using LANCE Ultra cAMP assay (Perkin Elmer TRF0263).
All analysis was performed using GraphPad Prism 7.0 (GraphPad Software, San Diego, USA). Results are given, as EC50 (M).

[3] = biological target: human adenosine receptor sub-type A2b (Homo sapiens (Human), UniProt P29275); test: Affinity for human adenosine A2b receptor by SPR; type: binding; details: for IC50: SPR, human A2b receptor; for Relative selectivity for A2a v. A2b: from SPR IC50 values, rounded to 2 significant figures
Experimental: as §1, §2

[4] = biological target: human adenosine receptor sub-type A1 (Homo sapiens (Human), UniProt P30542); test: Affinity for human adenosine A1 receptor by SPR; type: binding; details: for IC50: SPR, human A1 receptor; for Relative selectivity for A2a v. A1: from SPR IC50 values, rounded to 2 significant figures
Experimental: as §1, §2

[5] = biological target: human adenosine receptor sub-type A3 (Homo sapiens (Human), UniProt P0DMS8); test: Affinity for human adenosine A3 receptor by SPR; type: binding; details: for Relative selectivity for A2a v. A3: from SPR IC50 values, rounded to 2 significant figures
Experimental: as §1, §2

Solubility = type: physicochemical; details: water (or specific buffer), thermodynamic from solid, overnight stirring at ambient temperature, LC-UV
Source text: The test compound in solid form was suspended in water (or specific buffer). After overnight stirring at ambient temperature protected from light, suspensions were filtered. An aliquot of the resulting supernatant was quantified using LC-UV method against a reference solution in DMSO obtained by preparation from powder.

[6] = tested on: human primary CD3+ T-cells; test: Recovery of 2-chloroadenosine (CADO) mediated inhibition of IL-2 production; type: cell-based; details: T-cell, two donors, 10 μM CADO, 48 hours
Experimental: CD3^+ cells were isolated from Buffy Coat of two human healthy donors (Donor 1: D1 and Donor 2: D2) with the RosetteSep technology (RosetteSep Human T cell enrichment cocktail from Stem Cell) according to provider's instructions. T-cells were then stimulated with anti-CD3 mAb, anti-CD28 mAb coated beads (Dynabeads® Human T-Activator CD3/CD28 (Thermo Fisher Scientific) in a complete medium containing 10% fetal bovine serum in the presence or not of Example 1. After one hour incubation time, CADO (2-chloroadenosine, Abcam Biochemical) at 10 μM was added to the culture. After 48 hours of stimulation at 37° C., 5% CO2 and a short centrifugation, culture supernatant were harvested and stored at −80° C. for further evaluation by ELISA. In the meantime, a staining with a living dye was performed to access compound-induced toxicity. Il-2 measurement was performed by using the Human IL-2 Uncoated ELISA (Invitrogen) following data sheet instructions. To access the percentage of IL-2 inhibition induced by 10 μM CADO, the calculation used control condition (cells stimulated in basal condition). Then to access compound-induced recovery of IL-2 production, each dose was normalized following this formula: ([sample]−[mean of CADO])/([mean of basal condition]−[mean of CADO])*100. Compounds normalization was performed per plate. […]

MCA-205 tumor = test: Inhibition of the growth of MCA-205 tumor in syngeneic mice; type: in vivo, mouse; details: 30 mg/kg BID oral gavage, 11 consecutive days from day 10; day 19 to study termination; p<0.005 and p<0.001
Experimental: C57/BI6JRjJL female mice (9-10 weeks old from Janvier Laboratories) were engrafted in subcutaneous location with 0.25.10^6 MCA-205 cells (suspended in 100% PBS buffer, fibrosarcoma cell line kindly provided by Dr. J. Stagg, Universite de Montréal, Canada). Mice were then kept in a post-operative cabinet at 28° C. until complete recovery.
Randomization of mice was performed on day 9 post-cell inoculation, after measurement of tumour volumes using a digital caliper. Assuming an ovoid form of the tumour, the following formula was applied: Volume=0.52×(width)^2×length. Width and length were expressed in mm, volume in mm^3. Twenty-six female mice were allocated in two groups: vehicle and Example 1 (n=13 mice/group). Oral gavage with vehicle (control group, PEG200/Soluplus 10% in Citrate Buffer pH3 at 50 mM (50%/50% w/v)) or Example 1 solubilized in the vehicle at 30 mg/kg in BID (twice daily administrations by oral gavage with a volume of administration of 5 ml/kg) was initiated 10 days after cell inoculation and continued for 11 consecutive days.

Chain of human adenosine receptor sub-type A2b (P29275 whole entry): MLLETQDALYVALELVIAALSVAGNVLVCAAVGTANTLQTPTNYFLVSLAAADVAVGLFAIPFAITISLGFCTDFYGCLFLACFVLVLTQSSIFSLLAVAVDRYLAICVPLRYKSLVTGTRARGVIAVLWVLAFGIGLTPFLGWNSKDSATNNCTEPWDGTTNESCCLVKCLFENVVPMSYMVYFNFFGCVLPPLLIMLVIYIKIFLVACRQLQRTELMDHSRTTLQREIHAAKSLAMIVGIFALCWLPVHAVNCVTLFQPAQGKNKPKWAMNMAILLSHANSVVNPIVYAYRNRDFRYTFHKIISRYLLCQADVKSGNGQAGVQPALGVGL
Chain of human adenosine receptor sub-type A1 (P30542 whole entry): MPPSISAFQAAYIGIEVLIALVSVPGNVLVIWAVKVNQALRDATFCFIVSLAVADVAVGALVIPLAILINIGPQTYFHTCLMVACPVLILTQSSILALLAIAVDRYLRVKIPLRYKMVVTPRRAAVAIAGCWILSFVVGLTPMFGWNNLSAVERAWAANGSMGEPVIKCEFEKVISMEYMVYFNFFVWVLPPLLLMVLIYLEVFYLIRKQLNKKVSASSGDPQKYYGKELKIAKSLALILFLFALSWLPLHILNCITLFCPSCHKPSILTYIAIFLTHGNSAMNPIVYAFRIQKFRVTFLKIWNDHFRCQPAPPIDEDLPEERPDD
Chain of human adenosine receptor sub-type A3 (P0DMS8 whole entry): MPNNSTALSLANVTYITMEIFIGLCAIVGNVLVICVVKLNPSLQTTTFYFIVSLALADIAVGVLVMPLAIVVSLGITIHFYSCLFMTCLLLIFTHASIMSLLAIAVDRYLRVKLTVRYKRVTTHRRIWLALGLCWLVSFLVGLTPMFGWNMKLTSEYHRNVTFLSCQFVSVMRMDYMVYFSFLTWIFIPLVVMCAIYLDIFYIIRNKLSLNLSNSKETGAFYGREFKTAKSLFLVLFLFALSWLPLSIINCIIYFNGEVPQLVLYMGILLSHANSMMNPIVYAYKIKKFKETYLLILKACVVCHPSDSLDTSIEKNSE
Chain of human adenosine receptor sub-type A2a (wild type) (P29274 whole entry): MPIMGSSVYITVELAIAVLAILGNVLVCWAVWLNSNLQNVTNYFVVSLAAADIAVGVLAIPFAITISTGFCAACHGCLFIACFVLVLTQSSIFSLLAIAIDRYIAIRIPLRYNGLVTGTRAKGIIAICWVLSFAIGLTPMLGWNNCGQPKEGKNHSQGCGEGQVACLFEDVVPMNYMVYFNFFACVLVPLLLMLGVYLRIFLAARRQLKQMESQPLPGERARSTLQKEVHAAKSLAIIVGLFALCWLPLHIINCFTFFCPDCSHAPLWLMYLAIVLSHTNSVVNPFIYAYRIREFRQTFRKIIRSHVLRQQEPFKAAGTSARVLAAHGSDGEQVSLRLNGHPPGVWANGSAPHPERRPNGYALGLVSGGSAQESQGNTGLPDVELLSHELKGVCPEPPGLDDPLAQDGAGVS
Chain of human A2a receptors (HEK 293 transfected) (P29274 whole entry): as above

| IC50 [1] | EC50 [2] | IC50 [3] | Relative selectivity for A2a v. A2b [3] | IC50 [4] | Relative selectivity for A2a v. A1 [4] | A3 SPR IC50 ([5]; SPR, human A3 receptor) | Relative selectivity for A2a v. A3 [5] | solubility (Solubility) | IC50 ([5]; SPR, human A3 receptor) | EC50 [6] | Compound | mean tumor volume (MCA-205 tumor) |
| --- | --- | --- | --- | --- | --- | --- | --- | --- | --- | --- | --- | --- |
| 5.6 nM | 84 nM | 1450 nM | 260 | 1180 nM | 210 | Non- | >10000 | > 5 µg/mL | – | – | Cc1ccc(Cn2cc3c(N)nc(-c4ccsn4)nc3n2)cc1F [Example 19, 2-[(3-fluoro-4-methylphenyl)methyl]-6-(1,2-thiazol-3-yl)-2H-pyrazolo[3,4-d]pyrimidin-4-amine] | – |
| 2.2 nM | 18 nM | 4910 nM | 2200 | 114 nM | 51 | – | 900 | 1 µg/mL (≈ 2.98 µM) | 1970 nM | – | COc1ccccc1Cn1cc2c(N)nc(-c3ccc(C)o3)nc2n1 [Comparative Example 1, reference compound] | – |
| 4.2 nM | 60 nM | 530 nM | 130 | 290 nM | 69 | – | 1100 | > 10 µg/mL | 4700 nM | – | Nc1nc(-c2ccsn2)nc2nn(Cc3cccc(Cl)c3)cc12 [Example 35, 2-[(3-chlorophenyl)methyl]-6-(1,2-thiazol-3-yl)-2H-pyrazolo[3,4-d]pyrimidin-4-amine] | – |
| 2.7 nM | 82 nM | – | – | – | – | – | – | > 10 µg/mL | – | – | COc1ccccc1Cn1cc2c(N)nc(-c3cnccn3)nc2n1 [Example 37, 2-[(2-methoxyphenyl)methyl]-6-(pyrazin-2-yl)-2H-pyrazolo[3,4-d]pyrimidin-4-amine] | – |
| 589 nM | – | – | – | – | – | – | – | > 50 µg/mL | – | – | COc1ccc(Cn2cc3c(N)nc(-c4cnccn4)nc3n2)cc1OC [Example 41, 2-[(3,4-dimethoxyphenyl)methyl]-6-(pyrazin-2-yl)-2H-pyrazolo[3,4-d]pyrimidin-4-amine] | – |
| 3.5 nM | 4 nM | 1500 nM | 430 | 3100 nM | 890 | – | 10000 | – | 35800 nM | 560 nM | Cc1cccc(Cn2cc3c(N)nc(-c4ccsn4)nc3n2)c1 [Example 1, 2-[(3-methylphenyl)methyl]-6-(1,2-thiazol-3-yl)-2H-pyrazolo[3,4-d]pyrimidin-4-amine] | significant inhibition of the mean tumor volume |
| 11 nM | 23 nM | – | – | – | – | – | – | > 10 µg/mL | – | – | COc1cccc(Cn2cc3c(N)nc(-c4nccs4)nc3n2)c1 [Example 8, 2-[(3-methoxyphenyl)methyl]-6-(1,3-thiazol-2-yl)-2H-pyrazolo[3,4-d]pyrimidin-4-amine] | – |
| 4.9 nM | 70 nM | 580 nM | 120 | 350 nM | 71 | – | 4300 | > 10 µg/mL | 21000 nM | – | COc1cccc(Cn2cc3c(N)nc(-c4cnco4)nc3n2)c1 [Example 11, 2-[(3-methoxyphenyl)methyl]-6-(1,3-oxazol-5-yl)-2H-pyrazolo[3,4-d]pyrimidin-4-amine] | – |
| 3.2 nM | 7 nM | – | – | – | – | – | – | > 50 µg/mL | – | – | Cc1cccc(Cn2cc3c(N)nc(-c4cnccn4)nc3n2)c1 [Example 27, 2-[(3-methylphenyl)methyl]-6-(pyrazin-2-yl)-2H-pyrazolo[3,4-d]pyrimidin-4-amine] | – |
| 5.1 nM | 235 nM | 690 nM | 140 | 680 nM | 130 | – | 12000 | – | 60000 nM | – | COc1cccc(Cn2cc3c(N)nc(-c4ccsn4)nc3n2)c1 [Example 10, 2-[(3-methoxyphenyl)methyl]-6-(1,2-thiazol-3-yl)-2H-pyrazolo[3,4-d]pyrimidin-4-amine] | – |
| 4.3 nM | 13 nM | 11700 nM | 2700 | 3400 nM | 790 | – | 10000 | – | 44300 nM | – | COc1ccccc1Cn1cc2c(N)nc(-c3ccsn3)nc2n1 [Example 38, 2-[(2-methoxyphenyl)methyl]-6-(1,2-thiazol-3-yl)-2H-pyrazolo[3,4-d]pyrimidin-4-amine] | – |
| 15 nM | 127 nM | – | – | – | – | – | – | > 50 µg/mL | – | – | Nc1nc(-c2ccsn2)nc2nn(Cc3ccccc3O)cc12 [Example 44, 2-{[4-amino-6-(1,2-thiazol-3-yl)-2H-pyrazolo[3,4-d]pyrimidin-2-yl]methyl}phenol] | – |
| 7.9 nM | 11 nM | 25600 nM | 3200 | 1420 nM | 180 | – | 6300 | – | 49900 nM | – | Cc1ccc(Cn2cc3c(N)nc(-c4ccsn4)nc3n2)cc1C(F)(F)F [Example 24, 2-{[4-methyl-3-(trifluoromethyl)phenyl]methyl}-6-(1,2-thiazol-3-yl)-2H-pyrazolo[3,4-d]pyrimidin-4-amine] | – |

— patent US11786528B2, “Pyrazolopyrimidine compounds as adenosine receptor antagonists” (EXSCIENTIA LTD., priority 2018, dated 2023)
